In US4172145A, “Benzo(b)furylacetic acid derivatives to reduce inflammation” (priority 1975, dated 1979):
Where two headings read alike, the source gives them in different places.

Legend:
[1] = system: pain threshold of inflamed and not inflamed paws of rats; experiment: Analgesic activity in rats (Randall-Selitto Method); type: in vivo, rat (male Wister strain); conditions: Rattus norvegicus, po, read-out: Analgesic Coefficient; for change in vivo at 150 mg/kg: P.O. 150 mg/kg
Description: A group consisting of 6-7 rats (male Wister strain; weight: 100-120 g) was used for the test and control groups in this test. Each rat of both groups was treated with 0.1 ml of a 1% carrageenin solution as phlogistic agent by subcutaneous injection in one hind paw. 3 hours after the administration, pressure was applied to the treated paw of each rat by means of a pressing device (manufactured by Ugobasile S. A., Italy). The threshold of pain induced by press was measured with reference to the shriek and struggle according to the method of Randall and Selitto [Randall, L. O. and Selitto, J. J.; Arch, Int. Pharmocodyn., 111, 409 (1957)]. From each group 5 rats having a good response reaction, i.e. the pain threshold was not more than 70 g, were respectively selected. […] 1, 2 and 3 hours after administration, pressure was again applied to both the inflamed and not inflamed paws of the test rats and the pain threshold was measured. On the other hand, without the administration of the active compound, the pressure was applied to both the inflamed and not inflamed paws of the selected 5 rats of the control group and the pain threshold was measured. The inflamed paws of the test and control groups were compared with each other. Also the not inflamed paws of the both groups were compared with each other.
The analgesic coefficient was calculated by means of the following equation, and the larger analgesic coefficient the better analgesic activity. [formula] in which X: analgesic coefficient (%)
P1 : threshold (g) of the test rats administered with active compounds
P2 : threshold (g) of the control rats without administration of active compound

[2] = system: acetic acid-induced writhing reactions in mice; experiment: Analgesic activity in mice (AcOH Writhing Method); type: in vivo, mouse (male dd-strain); conditions: mouse, oral; for ED50: read-out: Analgesic Effect (AcOH Writhing Method), ED50
Description: In this test, three groups, each consisting of 10 mice (male dd-strain; weight: 19-21 g) were used. The compounds shown in Table 3 were administered orally to the test mice. One hour after the administration, the mice were treated with 0.1 ml/10 g of 0.7% acetic acid solution in physiological saline by intraperitoneal injection according to the method of Koster et al [Koster, R., et al; Fed. Proc., 18, 412 (1959)]. Ten minutes after the treatment, the number of writhing reactions occurring in the mice was counted.

[3] = in vivo; conditions: oral, observed one week, Litchfield and Wilcoxon
Description: In this test, five groups, each consisting of 5 mice (male dd strain; weight: 19-21 g) and 5 rats (male Wistar strain; weight: 100-120 g) were used. […] The LD50 was calculated according to the method of Litchfield and Wilcoxon [Journal of Pharmacol. and Exper. Therap.

[4] = in vivo; conditions: rat, po
Description: A test group consisting of 10-15 rats (male Wistar strain; weight: 180-220 g) was used in this test. Each rat was fasted for 20 hours, but water was allowed ad libitum. The compounds shown in Table 5 were administered orally. After a 20-hour interval during which the rats were not fed but were allowed water, each rat was administered under ether anesthesia with 0.5 ml per 100 g body weight of a 5% solution of pontamine sky blue 6BX in saline (pH 7.2--adjusted with 0.5 N HCl) by intravenous injection. 15 minutes after administration each rat was killed. The stomach was removed and maintained in a 1% formalin solution. After about 2 hours, the stomach was opened along the greater curvature and the length of lesions (dark blue areas against pale blue background) in the glandular portion was measured under a dissecting microscope (10×) provided with a square grid. The sum of the lengths (mm) of lesions was used as ulcer index.

[5] = system: carrageenin-induced edema on the hind paw of rats; experiment: Anti-edema effect on carrageenin-induced edema on the hind paw of rats (Carrageenin Edema Method); type: in vivo, rat (male Wistar strain); conditions: rat, oral, 3 hours after carrageenin
Description: The anti-edema effect was determined according to the method of Yamazaki et al [Yamazaki, H., et al; Folia Pharmacologica Japonica, 63, 302 (1967)].
In this test, a group consisting of five rats (male Wistar strain: weight 100-120 g) was used for the test and control groups. The compounds shown in Table 2 were administered orally to the rats of the test group. After one hour, 0.1 ml of a 1% carrageenin solution (phlogistic agent) was further administered to each rat by subcutaneous injection in one hind paw. To each rat of the control group, 0.1 ml of a 1% carrageenin solution was also administered in a similar manner to that for test rats. 1, 3 and 5 hours after administration of the phlogistic agent, the swelling ratio was calculated by means of the following equation: […]
Test group [formula] in which b: swelling ratio
B: volume of a hind paw without administration of phlogistic agent
B': volume of a hind paw administered with phlogistic agent
Control group [formula] in which a: swelling ratio
A: volume of a hind paw without administration of phlogistic agent
A': volume of a hind paw administered with phlogistic agent
The anti-edema effect was expressed as the suppression ratio of the edema in comparison with the control group to which the test compound had not been administered. The suppression ratio of the edema was determined 3 hours after administration of the phlogistic agent and was calculated by means of the following equation: [formula] in which a and b are as hereinbefore defined.

[6] = 1 h before acetic acid, read-out: Analgesic Effect (AcOH Writhing Method), Suppression Ratio
[7] = mouse, read-out: Acute Toxicity (P.O.), LD50, Mouse
[8] = rat, read-out: Acute Toxicity (P.O.), LD50, Rat
[9] = read-out: Anti-edema Effect, Suppression Ratio

Compound | change in vivo at 150 mg/kg ([1]; 1 h, inflamed paw, 1 hr.) [%] | change in vivo at 150 mg/kg ([1]; 1 h, not inflamed paw, 1 hr.) [%] | change in vivo at 150 mg/kg ([1]; 2 h, inflamed paw, 2 hr.) [%] | change in vivo at 150 mg/kg ([1]; 2 h, not inflamed paw, 2 hr.) [%] | change in vivo at 150 mg/kg ([1]; 3 h, inflamed paw, 3 hr.) [%] | change in vivo at 150 mg/kg ([1]; 3 h, not inflamed paw, 3 hr.) [%] | inhibition in vivo at 150 mg/kg [2, 6] [%] | inhibition in vivo at 300 mg/kg [2, 6] [%] | ED50 [2] [mg/kg] | LD50 at 168 h [3, 7] [mg/kg] | LD50 at 168 h [3, 8] [mg/kg] | TD50 at 20 h [4] [mg/kg] | inhibition in vivo at 75 mg/kg [5, 9] [%] | inhibition in vivo at 150 mg/kg [5, 9] [%] | inhibition in vivo at 300 mg/kg [5, 9] [%] | ED50 [5] [mg/kg] | also measured
Cc1c(CC(=O)O)oc2ccc(Cl)cc12 [Test Compound 2, 5-chloro-3-methyl-2-benzo(b)furylacetic acid] | 25.1 | 0.5 | 17.8 | 1.3 | 16.3 | 2.4 | 35.9 | 68.8 | 190 | 800 | 425 | 230 | 45.7 | 63.3 | 74.2 | 980 | –
CC(C)Cc1ccc(C(C)C(=O)O)cc1 (stereo not shown) [Ibuprofen, reference compound] | 20.9 | 0.5 | 28.8 | 5.5 | 23.3 | 4.2 | 57.2 | – | – | – | – | 46 | – | 45.3 | – | – | –
Cc1c(CC(=O)O)oc2ccc(F)cc12 [Test Compound 5, 5-fluoro-3-methyl-2-benzo(b)furylacetic acid] | 38.6 | 0 | 23.5 | 0 | 19.3 | 0 | 26 | 41.4 | 380 | 1750 | > 1000 | > 300 | 37.9 | 60 | 71.9 | 105 | –
Cc1c(CC(=O)O)oc2ccc(-c3ccccc3)cc12 [Test Compound 7, 5-phenyl-3-methyl-2-benzo(b)furylacetic acid] | 37.2 | 8 | 23.3 | 2.4 | 11.3 | 4.7 | 20.9 | 77.6 | – | 500 to 1000 | > 300 | – | 52.7 | 63.9 | 73.3 | 70 | –
Cc1c(CC(=O)O)oc2ccccc12 [Test Compound 1, 3-methyl-2-benzo(b)furylacetic acid] | 13.8 | 0.4 | 5.9 | 1.7 | 4.2 | 0 | 42.9 | 70.9 | 170 | > 1100 | > 300 | – | 25.3 | 41.2 | 54.2 | 240 | inhibition in vivo at 75 mg/kg ([2]; 75 mg/kg, 1 h before acetic acid, read-out: Analgesic Effect (AcOH Writhing Method), Suppression Ratio): 21.7%
Cc1c(CC(=O)O)oc2ccc(C3CCCCC3)cc12 [Test Compound 9, 5-cyclohexyl-3-methyl-2-benzo(b)furylacetic acid] | 0 | 0 | 2 | 0 | 32 | 17.2 | – | – | – | > 1000 | > 150 | – | – | 28 | – | – | –
Cc1c(CC(=O)O)oc2ccc(C(C)(C)C)cc12 [Test Compound 6, 5-tert-butyl-3-methyl-2-benzo(b)furylacetic acid] | 19.5 | 6 | 17.8 | 0.8 | 14.4 | 1.3 | 23.7 | – | – | > 1000 | > 300 | – | – | 39.9 | – | – | –
CCCCC1C(=O)N(c2ccccc2)N(c2ccccc2)C1=O [Phenylbutazone, reference compound] | – | – | – | – | – | – | – | – | – | – | – | 76 | – | – | – | – | change in vivo at 100 mg/kg ([1]; 1 h, P.O. 100 mg/kg (** on upper line only), not inflamed paw, 1 hr.): 3.8%; change in vivo at 100 mg/kg ([1]; 1 h, P.O. 100 mg/kg, inflamed paw, 1 hr.): 20.7%; change in vivo at 100 mg/kg ([1]; 2 h, P.O. 100 mg/kg (** on upper line only), not inflamed paw, 2 hr.): 5.4%; change in vivo at 100 mg/kg ([1]; 2 h, P.O. 100 mg/kg, inflamed paw, 2 hr.): 23.2%; change in vivo at 100 mg/kg ([1]; 3 h, P.O. 100 mg/kg (** on upper line only), not inflamed paw, 3 hr.): 2%; change in vivo at 100 mg/kg ([1]; 3 h, P.O. 100 mg/kg, inflamed paw, 3 hr.): 27.7%; inhibition in vivo at 100 mg/kg ([2]; 100 mg/kg (footnote *; printed in 75 mg/kg column), read-out: Analgesic Effect (AcOH Writhing Method), Suppression Ratio): 20.8%; inhibition in vivo at 200 mg/kg ([2]; 200 mg/kg (footnote **; printed in 150 mg/kg column), read-out: Analgesic Effect (AcOH Writhing Method), Suppression Ratio): 28.2%; inhibition in vivo at 100 mg/kg ([5]; 100 mg/kg (footnote *; printed in 75 mg/kg column), read-out: Anti-edema Effect, Suppression Ratio): 42.6%; inhibition in vivo at 200 mg/kg ([5]; 200 mg/kg (footnote **; printed in 150 mg/kg column), read-out: Anti-edema Effect, Suppression Ratio): 53.5%
Cc1c(CC(=O)O)oc2ccc(Cc3ccccc3)cc12 [Test Compound 8, 5-benzyl-3-methyl-2-benzo(b)furylacetic acid] | 23.1 | 1.7 | 24.7 | 0.7 | 29.5 | 6.1 | 30.5 | 55.6 | – | 500 to 1000 | > 300 | – | – | 31.1 | – | – | –
